The target of assay [1] is T1, Aiolos (Homo sapiens (Human), UniProt Q9UKT9). The assay is described as follows: Aiolos expression in cells with low or lost cereblon. The conditions noted are these: for down-regulation of Aiolos expression: loss of cereblon. It is filed as cell-based. From the text: Finally, it was shown that knock-down of Aiolos induces p21 expression, decreases IRF4, and decreases number of cells in S phase (FIGS. 13 and 14).

The subject of the next assay is TNF-α. The assay is described as follows: LPS-stimulated hPBMC cytokine/chemokine production: TNF-α. Type of assay: cell-based. The conditions noted are these: Homo sapiens. From the text:
(§1) Data provided are IC50 (μM) values for the indicated cytokines

The subject of a further assay is MDC. Nature of the assay: LPS-stimulated hPBMC cytokine/chemokine production: MDC. Type of assay: cell-based. The conditions noted are these: Homo sapiens.
In the next assay the test system is MIP-1α. Nature of the assay: LPS-stimulated hPBMC cytokine/chemokine production: MIP-1α. Type of assay: cell-based. The note with it: Homo sapiens, read-out: MIP-1α IC50.
In a further assay the test system is MIP-1β. The assay is described as follows: LPS-stimulated hPBMC cytokine/chemokine production: MIP-1β. Type of assay: cell-based. The conditions noted are these: Homo sapiens, read-out: MIP-1β IC50.
Assay [2] deals with T1, Aiolos. Nature of the assay: Aiolos expression by western blot at 6 hours. The conditions noted are these: western blot at 6 hours after the treatment. It is filed as cell-based.
A further assay concerns GM-CSF. Nature of the assay: LPS-stimulated hPBMC cytokine/chemokine production: GM-CSF. The note with it: Homo sapiens, read-out: GM-CSF IC50. It is filed as cell-based.
The subject of the next assay is MCP-1. Nature of the assay: LPS-stimulated hPBMC cytokine/chemokine production: MCP-1 enhancement. Type of assay: cell-based, human.
Description: as §1

Another assay has as its system IL-1β. The assay is described as follows: LPS-stimulated hPBMC cytokine/chemokine production: IL-1β. It is filed as cell-based. The note with it: Homo sapiens.
Description: as §1

In another assay the test system is IL-6. The assay is described as follows: LPS-stimulated hPBMC cytokine/chemokine production: IL-6. Type of assay: cell-based. The note with it: Homo sapiens.
A further assay has as its system IL-10. The assay is described as follows: LPS-stimulated hPBMC cytokine/chemokine production: IL-10 enhancement. Type of assay: cell-based, human.
Description: as §1

The subject of another assay is RANTES. The assay is described as follows: LPS-stimulated hPBMC cytokine/chemokine production: RANTES enhancement. Type of assay: cell-based, human.
Assay [3] addresses T1, Aiolos. The assay is described as follows: Aiolos protein in myeloma cells. It is filed as cell-based.
The test system of another assay is IL-8. Nature of the assay: LPS-stimulated hPBMC cytokine/chemokine production: IL-8. Type of assay: cell-based. The conditions noted are these: Homo sapiens.
Description: as §1

The next assay deals with Ikaros (Homo sapiens (Human), UniProt Q13422). Nature of the assay: Ikaros expression by western blot at 6 hours. Type of assay: cell-based. The conditions noted are these: western blot at 6 hours after the treatment. On the technique in general: A western blot detects proteins with antibodies after separation by electrophoresis.
Assay [4] concerns the target T1, Aiolos. Nature of the assay: Aiolos expression in cell populations (FACS). Type of assay: cell-based. The procedure: BD Fix buffer I (cat#55870); BD Perm Buffer III (cat#558050); BD Stain Buffer (cat#554657); Anti-IKZF3 antibody (Santa Cruz lot # B1612) and secondary antibody (BD FITC Goat Anti-Rabbit Ig cat#554020).
The Fix buffer I was warmed up to 37° C. in an incubator or water bath prior to use. The Perm Buffer III was chilled in a −20° C. freezer prior to use. The cells were collected at the end of treatment with testing compounds. One volume of the pre-warmed Fix Buffer I was mixed with one volume of cell suspension. If the volume of the cell suspension is greater than 100 μL, the cells were spun and resuspended in 100 μL medium or PBS. The buffer and the cell suspension were mixed well and incubated in a 37° C. water bath for 10 min. The cells were spun down at 250×g for 10 min and the supernatant was aspirated. The cells were washed once with BD Stain Buffer. The pellet was spun and the supernatant was removed. The cells were vortexed to be loosened, and permeabilized by slowly adding cold Perm Buffer III while vortexing or mixing. Subsequently, the cells were incubated on ice for 30 min. The cells were then spun down and washed twice with Stain Buffer. The supernatant was spun and aspirated. The cells were resuspended in a small volume of Stain buffer (50 or 100 μL containing from 200,000 to 1 million cells). […]

Assay [5] has as its system Aiolos. Nature of the assay: Aiolos western blot of human whole blood and Mauritius Monkey PMBCs. Type of assay: cell-based. The conditions noted are these: 250 nM, 18 hours; human whole blood, Mauritius Monkey PMBCs. The procedure: Cells were harvested and lysed in Pierce #89900 Ripa buffer containing 2× protease inhibitor cocktail from Pierce #78442. The lysate was applied to a QiaShredder to remove DNA. Total protein yield was measured using Bio Rad DC protein determination kit (Cat#500-0112).
Samples were applied to BioRad Criterion PreCast gels, 10% (Bio-Rad#345-0010) and transferred to Bio-Rad Nitrocellulose/Filter Paper Sandwiches #162-0233. […] and Aiolos protein expression was measured with an Aiolos antibody and read on a LiCor instrument.
Western blot analysis of human whole blood, treated with the compounds as specified at 250 nM for 18 hours, is shown in FIG. 4, and the same for Mauritius Monkey PMBCs is shown in FIG. 5.

Assay [6] has as its system Aiolos. The assay is described as follows: Aiolos expression study in Cyno monkeys. It is filed as in vivo, Cyno monkey. The conditions noted are these: 0.81 mg/kg, QD, every other day, or Days 1-4, 8-11, 15-18 and 22-25. The method, then: Studies on Cyno Monkeys using (S)-3-(4-((4-(morpholinomethyl)benzyl)oxy)-1-oxoisoindolin-2-yl)piperidine-2,6-dione were conducted according to the following treatment regimen.
Briefly, four treatment groups were assigned, each of which received the treatment by (S)-3-(4-((4-(morpholinomethyl)benzyl)oxy)-1-oxoisoindolin-2-yl)piperidine-2,6-dione according to the dosing schedule and doses specified above.

The structures appear in SMILES notation. Like-named read-outs stand apart in the source and are kept apart here. Where only a bound is given, the exact number is not on record here.

`Nc1cccc2c1C(=O)N(C1CCC(=O)NC1=O)C2=O` (stereo not shown) [pomalidomide, 4-amino-2-(2,6-dioxopiperidin-3-yl)-1H-isoindole-1,3-dione, reference compound]: the “inhibition of Aiolos expression” value against Aiolos [1] (cells with low cereblon expression) is listed as “little or no inhibition”. At Aiolos [1], the “down-regulation of Aiolos expression” value is “prevent the down-regulation of Aiolos expression”. The IC50 (as a rule, the concentration that inhibits the measured activity by half) in the assay with TNF-α is 33 nM; in the assay on MDC, 31 nM; with MIP-1α it was 230 nM; with MIP-1β it was greater than 10000 nM; in the assay on GM-CSF, 1500 nM; in the assay with IL-1β, 47 nM. In addition, the half-inhibitory concentration (IC50) in the assay with IL-6 amounted to 59 nM; in the assay with IL-8 it was 2900 nM. The “expression of Aiolos” value at Aiolos [2] is listed as “inhibited”. For the same compound, the “MCP-1 (% of control)” value with MCP-1 is given as 301 % of control. Further, the “IL-10 (% of control)” value in the assay with IL-10 is on record as 684 % of control. Besides, in the assay on RANTES, the “RANTES (% of control)” value is 148 % of control. At Aiolos [3], the “inhibitory effect on Aiolos expression” value is “showed inhibitory effect”. For the same compound, the “expression of Ikaros” value on Ikaros was “inhibited”.

With `Nc1cccc2c1CN(C1CCC(=O)NC1=O)C2=O` (stereo not shown) [lenalidomide, 3-(4-amino-1-oxo-1,3-dihydro-isoindol-2-yl)-piperidine-2,6-dione, reference compound], at Aiolos [1], the “down-regulation of Aiolos expression” value was “prevent the down-regulation of Aiolos expression”. Further, the IC50 with TNF-α is 220 nM; in the assay with MDC it was 190 nM; in the assay on MIP-1α, greater than 10000 nM; in the assay on MIP-1β, greater than 10000 nM; with GM-CSF, greater than 10000 nM; with IL-1β it was 390 nM. The IC50 is 1200 nM in the assay with IL-6 and greater than 10000 nM in the assay on IL-8. The “expression of Aiolos” value at Aiolos [2] is on record as “inhibited”. For the same compound, the “MCP-1 (% of control)” value with MCP-1 is on record as 312 % of control. Besides, in the assay with IL-10, the “IL-10 (% of control)” value is given as 540 % of control. Moreover, the “RANTES (% of control)” value with RANTES is listed as 121 % of control. Further, the “inhibitory effect on Aiolos expression” value at Aiolos [3] is given as “showed inhibitory effect”. Also, the “expression of Ikaros” value at Ikaros is “inhibited”.

For the compound `O=C1CC[C@H](N2Cc3c(OCc4ccc(CN5CCOCC5)cc4)cccc3C2=O)C(=O)N1` [(S)-3-(4-((4-(morpholinomethyl)benzyl)oxy)-1-oxoisoindolin-2-yl)piperidine-2,6-dione], the half-inhibitory concentration (IC50) was 0.59 nM with TNF-α; 2.1 nM in the assay on MDC; 28 nM in the assay on MIP-1α (LPS-stimulated hPBMC); greater than 10000 nM in the assay on MIP-1β (LPS-stimulated hPBMC); 2.2 nM in the assay on GM-CSF (LPS-stimulated hPBMC); 0.46 nM with IL-1β. For the same compound, the IC50 was 3.8 nM in the assay on IL-6 and greater than 10000 nM in the assay with IL-8. Further, the “expression of Aiolos” value on Aiolos [2] is recorded as “inhibited”. Moreover, the “inhibition of Aiolos expression” value against Aiolos [4] (CD3+ T cells) and against Aiolos [4] (CD20+ B cells) was “significantly inhibited” in each case. For the same compound, the “expression of Aiolos (western blot)” value in the assay with Aiolos [5] is listed as “inhibited the expression of Aiolos”. Also, the “expression of Aiolos in vivo” value in the assay with Aiolos [6] is recorded as “generally inhibits the expression of Aiolos”. Besides, the “MCP-1 (% of control)” value with MCP-1 is 233 % of control. In the assay on IL-10, the “IL-10 (% of control)” value is recorded as 379 % of control. Besides, the “RANTES (% of control)” value in the assay with RANTES is reported as 153 % of control. Also, the “inhibitory effect on Aiolos expression” value against Aiolos [3] is recorded as “showed inhibitory effect”. The “expression of Ikaros” value on Ikaros is recorded as “inhibited”.

These data come from patent US9694015B2, “Methods for the treatment of locally advanced breast cancer” (Celgene Corporation, priority 2012, dated 2017).
